Data taken from patent US6896895B2, “Carotenoid esters, carotenoid-enriched feeds, and methods of pigmenting foods and foodstuffs” (DSM IP Assets B.V., priority 2000, dated 2005).

Experiments:
egg yolk = experiment: Egg yolk colour: reflectance colorimetry and Roche Yolk Colour Fan; format: in vivo, laying hens (ISA Brown); set-up: key to Chroma C*ab Value: CIE L*a*b* chroma C* value; key to Color Fan Value / Color Fan Value Value: visual score on Roche Yolk Colour Fan (RYCF, 1993 version); key to Color Fan Value, Pigmentation: − = off color; + = good color; settings: laying hens; for Color Fan Value % of Controls / Chroma C*ab % of Controls / Color Hue h*ab % of Controls / Chroma C*ab Value / Color Fan Value / Color Hue h*ab Value / Color Fan Value Value / Color Fan Value, Pigmentation: egg yolk
In short: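 ISA Brown laying hens, depleted at least 28 days on low-carotenoid basal diet (<2 mg xanthophylls/kg), fed pigment-supplemented mash ad libitum for three weeks. Pooled yolks of three to six eggs scored with Roche Yolk Colour Fan and measured by reflectance colorimetry (D65, 8°) as CIE L*a*b*, h*, C*; values average four yolk pools.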

[1] = Carotenoid ester content and deposition rate in egg yolk of laying hens (HPLC); format: in vivo, laying hens (ISA Brown); set-up: Deposition Rate Value: unit not given here; settings: for Deposition Rate Target Values % of Controls / Ethyl β-apo-8′-carotenoate Equivalents % of Controls / Deposition Rate % of Controls / Deposition Rate Target Values / Ethyl β-apo-8′-carotenoate Equivalents / Deposition Rate Value: egg yolk; for Deposition Rate % of Controls / Deposition Rate Value: Table 9
In short: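 Hens were first depleted for at least 28 days on a low-carotenoid basal diet (<2 mg total xanthophylls/kg, also the control diet), then fed mash supplemented with the pigments ad libitum for three weeks. Pooled homogenised yolk was extracted with ethanol/n-hexane and analysed by HPLC, calibrated with all-E ethyl β-apo-8′-carotenoate. Response factors were adjusted by molecular weight, and Z-isomers were corrected by a factor of 1.4.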

[2] = trial H-12/99, 1.0 mg/kg feed, Table 9
[3] = trial H-12/99, 2.0 mg/kg feed, Table 9
[4] = trial H-12/99, 4.0 mg/kg feed, Table 9
[5] = trial H-12/99, 8.0 mg/kg feed, Table 9
[6] = trial H-19/98, 4.0 mg/kg feed, Table 9
[7] = trial H-25/98, 5.0 mg/kg feed, Table 9

## CC1=C(/C=C/C(C)=C/C=C/C(C)=C/C=C/C=C(C)/C=C/C=C(\C)C(=O)OC(C)C)C(C)(C)CCC1 [compound (17), isopropyl beta-apo-8′-carotenoate]
Egg yolk; average over doses, Table 7
  Color Fan Value % of Controls: 105%
Egg yolk; average over doses, Table 9
  Chroma C*ab % of Controls: 98%
  Color Fan Value % of Controls: 105%
  Color Hue h*ab % of Controls: 101%
Egg yolk; trial H-12/99, 1.0 mg/kg feed
  Chroma C*ab % of Controls: 98%
  Chroma C*ab Value: 39
  Color Fan Value: 3
  Color Fan Value % of Controls: 66%
  Color Hue h*ab % of Controls: 101%
  Color Hue h*ab Value: 95
Egg yolk; [2]
  Color Fan Value % of Controls: 66%
  Color Fan Value Value: 3
Egg yolk; trial H-12/99, 2.0 mg/kg feed
  Chroma C*ab % of Controls: 100%
  Chroma C*ab Value: 45
  Color Fan Value: 6
  Color Fan Value % of Controls: 104%
  Color Fan Value, Pigmentation: +
  Color Hue h*ab % of Controls: 101%
  Color Hue h*ab Value: 93
Egg yolk; [3]
  Color Fan Value % of Controls: 104%
  Color Fan Value Value: 6
  Color Fan Value, Pigmentation: +
Egg yolk; trial H-12/99, 4.0 mg/kg feed
  Chroma C*ab % of Controls: 98%
  Chroma C*ab Value: 51
  Color Fan Value: 6
  Color Fan Value % of Controls: 97%
  Color Fan Value, Pigmentation: +
  Color Hue h*ab % of Controls: 102%
  Color Hue h*ab Value: 90
Egg yolk; [4]
  Color Fan Value % of Controls: 97%
  Color Fan Value Value: 6
  Color Fan Value, Pigmentation: +
Egg yolk; trial H-12/99, 8.0 mg/kg feed
  Chroma C*ab % of Controls: 96%
  Chroma C*ab Value: 54
  Color Fan Value: 9
  Color Fan Value % of Controls: 156%
  Color Fan Value, Pigmentation: +
  Color Hue h*ab % of Controls: 100%
  Color Hue h*ab Value: 85
Egg yolk; [5]
  Color Fan Value % of Controls: 156%
  Color Fan Value Value: 9
  Color Fan Value, Pigmentation: +
Egg yolk; trial H-19/98, 4.0 mg/kg feed
  Chroma C*ab % of Controls: 97%
  Chroma C*ab Value: 51
  Color Fan Value: 5
  Color Fan Value % of Controls: 79%
  Color Fan Value, Pigmentation: +
  Color Hue h*ab % of Controls: 106%
  Color Hue h*ab Value: 89
Egg yolk; [6]
  Color Fan Value % of Controls: 79%
  Color Fan Value Value: 5
  Color Fan Value, Pigmentation: +
Egg yolk; trial H-25/98, 5.0 mg/kg feed
  Chroma C*ab % of Controls: 99%
  Chroma C*ab Value: 52
  Color Hue h*ab % of Controls: 98%
  Color Hue h*ab Value: 86
Egg yolk; [7]
  Color Fan Value % of Controls: 130%
  Color Fan Value Value: 9
Egg yolk; trial H-25/99, 5.0 mg/kg feed
  Color Fan Value: 9
  Color Fan Value % of Controls: 130%
Egg yolk; compared to the control
  quality in terms of deposition rate and color intensity (chroma C*a*b*) in the egg yolk: comparable quality
[1]; average over doses, Table 7
  Deposition Rate Target Values % of Controls: 101%
  Ethyl β-apo-8′-carotenoate Equivalents % of Controls: 91%
[1]; average over doses
  Deposition Rate % of Controls: 101%
[1]; trial H-12/99, 1.0 mg/kg feed
  Deposition Rate Target Values: 44%
  Deposition Rate Target Values % of Controls: 97%
  Ethyl β-apo-8′-carotenoate Equivalents: 2.6 mg/kg
  Ethyl β-apo-8′-carotenoate Equivalents % of Controls: 97%
  Deposition Rate % of Controls: 97%
  Deposition Rate Value: 44
[1]; trial H-12/99, 2.0 mg/kg feed
  Deposition Rate Target Values: 44%
  Deposition Rate Target Values % of Controls: 100%
  Ethyl β-apo-8′-carotenoate Equivalents: 5.2 mg/kg
  Ethyl β-apo-8′-carotenoate Equivalents % of Controls: 94%
  Deposition Rate % of Controls: 100%
  Deposition Rate Value: 44
[1]; trial H-12/99, 4.0 mg/kg feed
  Deposition Rate Target Values: 42%
  Deposition Rate Target Values % of Controls: 85%
  Ethyl β-apo-8′-carotenoate Equivalents: 9.6 mg/kg
  Ethyl β-apo-8′-carotenoate Equivalents % of Controls: 81%
  Deposition Rate % of Controls: 85%
  Deposition Rate Value: 42
[1]; trial H-12/99, 8.0 mg/kg feed
  Deposition Rate Target Values: 49%
  Deposition Rate Target Values % of Controls: 104%
  Ethyl β-apo-8′-carotenoate Equivalents: 23.1 mg/kg
  Ethyl β-apo-8′-carotenoate Equivalents % of Controls: 96%
  Deposition Rate % of Controls: 104%
  Deposition Rate Value: 49
[1]; trial H-19/98, 4.0 mg/kg feed
  Deposition Rate Target Values: 54%
  Deposition Rate Target Values % of Controls: 117%
  Ethyl β-apo-8′-carotenoate Equivalents: 11.1 mg/kg
  Ethyl β-apo-8′-carotenoate Equivalents % of Controls: 95%
  Deposition Rate % of Controls: 117%
  Deposition Rate Value: 54
[1]; trial H-25/98, 5.0 mg/kg feed
  Deposition Rate % of Controls: 106%
  Deposition Rate Value: 50
[1]; trial H-25/99, 5.0 mg/kg feed
  Deposition Rate Target Values: 50%
  Deposition Rate Target Values % of Controls: 100%
  Ethyl β-apo-8′-carotenoate Equivalents: 13.3 mg/kg
  Ethyl β-apo-8′-carotenoate Equivalents % of Controls: 84%
[1]; versus the control
  concentration in the egg yolk: in the range of the control
